The text below walks through data of patent US20190008870A1, “COMPOSITIONS AND METHODS FOR LIPID METABOLISM DISORDER” (JANSFAT BIOTECHNOLOGY CO., LTD., priority 2016, published 2019).

Assay [1] in a line: Body weight and food intake of mice fed with HFD. The class given is in vivo. As for the experimental part:
(§1) In the experiment, C57BL/6J male mice (21-22 g), after fasting, were fed an HFD as a model of hyperlipidemia for 8 weeks. During the 2 month experiments, mice fasted for one night before the experiment was changed from a standard diet (STD) to an HFD and then the mice were randomly divided into 13 groups, including a protection group, 2 control and 10 treatment groups. Six mice were used in each group. […] Liver from the protection group supplemented with KMUP-1 HCl (1 mg/kg/day) were used to determine the HMG CoA reductase expression. Each group of mice had free access to drinking water from week 1 to week 14. Tap water was used to normalize mineral nutrition.
Within 2 months, the 3 day food intake average for each animal was measured. The weight gain and plasma lipid levels of each group were determined and compared to the non-treatment control group. Mouse blood was collected during the daytime by cardiac puncture followed by centrifugation at 90×g (Benchtop Centrifuge, U.S.A.) to separate the serum, and frozen at −80° C., for biochemical analysis using a Hitachi Clinical Analyzer 7070 (Hitachi High-Technologies Co. Tokyo, Japan). Agents used in the assays were obtained from Merck & Co. (Kenilworth, N.J., U.S.A.). Triglyceride (TG), total cholesterol, HDL cholesterol and LDL cholesterol in mouse serum were measured by methods used in the clinic. To measure the hepatic Triglyceride, isolated liver were cut into small chips.

Another assay concerns SR-B1. As to the kind of experiment: HFD-induced hepatic SR-B1 expression. The class given is in vivo. The following applies: HFD mice; for SR-B1: CTL 100 (Table 8); for SR-B1 expression: Control 100%. The method, then: as §1
For the expression of SR-B1, HMGR, PPARγ and ROCK II, isolated liver tissues were cut into small chips and placed into an extraction buffer (Tris 10 mM, pH 7.0, NaCl 140 mM, PMSF 2 mM, DTT 5 mM, NP-40 0.5%, pepstatin A 0.05 mM and leupeptin 0.2 mM) for hepatic protein extraction, and centrifuged at 20,000×g for 30 minutes. The obtained protein extract was boiled to a ratio of 4:1 with a sample buffer (Tris 100 mM, pH 6.8, glycerol 20%, SDS 4% and bromophenol blue 0.2%). Electrophoresis was performed using 10% SDS-polyacrylamide gel (1 hour, 100 V, 40 mA, 20 μg protein per lane).
Separated proteins, after 3 repeated centrifugations to discard up-layer tissue lipid in purity, were transferred to PVDF membranes treated with 5% fat-free milk powder to block the nonspecific IgGs (90 minutes, 100 V) and incubated for 1 hour with specific protein antibody. The blot was then incubated with anti-mouse or anti-goat IgG linked to alkaline phosphatase (1:1000) for 1 hour.

The subject of another assay is LDLRs. Put plainly: IHC staining of LDLRs in livers of HFD mice. In kind it is in vivo. As to conditions: HFD animals, protection and treatment groups.
Another assay concerns PKA. As to the kind of experiment: PKA expression/immunoreactivity in HepG2 cells. The class given is cell-based. As for the experimental part: (§2) HepG2 cells were treated with various concentrations of targeted drugs for 24 hours. Reactions were terminated by washing twice with cold PBS, and the cells were then harvested. Proteins in the whole-cell lysate were homogenized in an ice-cold lysis buffer and a protease inhibitor (Sigma-Aldrich, St. Louis, Mo., U.S.A.). The homogenate was centrifuged at 90,000×g for 15 minutes at 4° C., and supernatant was recovered as the total cellular protein. Cytosolic and membrane fractions of HepG2 cells were prepared using a CNM (Cytosol Nuclear Membrane) compartmental protein extraction kit (BioChain Institute Inc., Hayward, Calif., U.S.A.) according to the manufacturer's instructions. All of the fractionated protein solutions were stored at −80° C. until analysis. To measure the expression levels of proteins by drugs, the total cell protein was extracted after incubation with treatments for 24 hours and then Western blotting analysis was performed as described previously.
(§3) To determine that KMUP-1 or targeted drugs can affect PKA, we incubated KMUP-1 (10^−4, 10^−5, 10^−6 M) or targeted drugs with HepG2 cells for 24 hours to measure the protein expressions of PKA/PKG by Western blotting or PKA/PKG and HSL immunoreactivities by fluorescence staining, combined with image scanning in the absence or presence of oxidized LDL (200 μg/mL).

The next assay concerns PKG. Put plainly: PKG expression/immunoreactivity in HepG2 cells. In kind it is cell-based. As for the experimental part: as §2, §3
The mark [2] stands for this setting: HepG2 cells, 10, 20, 40 μM, in the presence of LDL (500 μg/mL).

Regarding `Cn1c(=O)c2c(ncn2CCN2CCN(c3ccccc3Cl)CC2)n(C)c1=O` [KMUP-1, 7-[2-[4-(2-chlorophenyl)piperazinyl]ethyl]-1,3-dimethylxanthine], the body-weight gain result in assay [1] (HFD mice 8 weeks, KMUP-1 HCl 2.5, 5 mg/kg p.o., simvastatin 5 mg/kg p.o., compared to the control HFD group (p<0.05)) was “reduced”. Further, the “final BW (Body weight)” value in assay [1] (HFD mice, 2.5 mg/kg p.o.) is 25.7 ± 0.7 g; in assay [1] (HFD mice, 5 mg/kg p.o.), 24.3 ± 0.5 g. Also, the body weight result in assay [1] (HFD mice, drinking 2.5 mg/200 ml water, protection and treatment groups) was “decreased”. The SR-B1 is reported as 29% with SR-B1 (Protection group) and 59% in the assay with SR-B1 (treatment 2.5 mg/200 mL drink). The SR-B1 expression in the assay with SR-B1 (drinking KMUP-1, Protection group) amounted to 30%; with SR-B1 (drinking KMUP-1, Treatment group), 59%. In addition, in the assay with LDLRs, the “hepatic LDLRs (IHC staining)” value is recorded as “increased”. In addition, the “oxLDL-induced reduction of PKA expression” value in the assay with PKA (HepG2 cells, 1, 10, 100 μM, 200 μg/mL oxLDL) is given as “reversed”. The PKA protein expression result in the assay with PKA (setting [2]) is listed as “could not significantly affect”. For the same compound, in the assay on PKA (HepG2 cells, 24 hours), the “PKA immunoreactivity (green fluorescence)” value is “increased”. Besides, the PKG immunoreactivity entry in the assay on PKG (HepG2 cells (data not shown)) is “not significantly affected”. In the assay on PKG (setting [2]), the “expression of PKG” value is on record as “increased”.
